Data from ChEMBL document CHEMBL3217450, “Structure based virtual screening for discovery of novel human neutrophil elastase inhibitors” (Medchemcomm, 2012).
Residues, ends and D or L forms follow the SMILES beside them. *: point of attachment. MeOSuc = COC(=O)CCC(=O)*; CH2Cl = ClC*

Legend:
Neutrophil elastase = molecular target: T1, Neutrophil elastase (Homo sapiens, UniProt P08246); assay: Inhibition of human neutrophil elastase using N-MeOSuc-Ala-Ala-Pro-Val-p-nitroanilide as substrate incubated for 30 mins prior to substrate addition measured for 60 mins by chromogenic 96 well microplate assay
T1 sequence (P08246 whole entry): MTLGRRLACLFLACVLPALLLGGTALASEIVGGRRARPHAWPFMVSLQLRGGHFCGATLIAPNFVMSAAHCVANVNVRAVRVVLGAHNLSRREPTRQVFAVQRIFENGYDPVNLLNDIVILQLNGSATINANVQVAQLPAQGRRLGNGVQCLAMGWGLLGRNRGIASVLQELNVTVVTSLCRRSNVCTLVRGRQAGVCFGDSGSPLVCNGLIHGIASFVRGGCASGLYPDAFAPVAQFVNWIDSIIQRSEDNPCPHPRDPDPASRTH

Cathepsin G = molecular target: T2, Cathepsin G (Homo sapiens, UniProt P08311); assay: Inhibition of cathepsin G in human neutrophil using Suc-Ala-Ala-Pro-Phe-p-nitroanilide as chromogenic substrate incubated for 30 mins prior to substrate addition measured for 30 mins by progress curve method
T2 sequence (P08311 whole entry): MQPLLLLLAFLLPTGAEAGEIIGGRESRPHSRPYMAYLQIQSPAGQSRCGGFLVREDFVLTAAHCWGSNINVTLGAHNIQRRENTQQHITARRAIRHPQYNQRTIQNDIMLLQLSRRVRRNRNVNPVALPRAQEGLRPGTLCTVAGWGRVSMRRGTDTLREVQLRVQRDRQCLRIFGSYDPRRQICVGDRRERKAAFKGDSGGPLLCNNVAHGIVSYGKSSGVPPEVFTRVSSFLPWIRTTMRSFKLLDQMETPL

[1] = Chemical stability of the compound in phosphate buffer at pH 7.4 assessed as compound remaining at 50 uM after 2 days by HPLC analysis; assay type: physicochemical; settings: read-out: Stability
Myeloblastin = molecular target: T3, Myeloblastin (Homo sapiens, UniProt P24158); assay: Inhibition of proteinase 3 in human neutrophil using N-MeOSuc-Ala-Ala-Pro-Val-p-nitroanilide as chromogenic substrate measured for 60 mins by chromogenic assay
T3 sequence (P24158 whole entry): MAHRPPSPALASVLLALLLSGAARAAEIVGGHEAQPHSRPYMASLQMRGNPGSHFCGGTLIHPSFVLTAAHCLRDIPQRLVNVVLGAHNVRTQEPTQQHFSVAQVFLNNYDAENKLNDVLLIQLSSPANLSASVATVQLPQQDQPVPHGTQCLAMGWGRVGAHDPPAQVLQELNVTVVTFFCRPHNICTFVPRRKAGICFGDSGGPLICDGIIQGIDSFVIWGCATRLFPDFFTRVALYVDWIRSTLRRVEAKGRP

[2] = Cytotoxicity against mouse NIH/3T3 cells after 24 hrs; assay type: cell-based; settings: NIH3T3, 24 h
HEK-293T = assay: Cytotoxicity against human HEK293T cells after 24 hrs; assay type: cell-based
Pancreatic elastase = Pancreatic elastase (Sus scrofa, UniProt P08419+P00772); assay: Inhibition of porcine pancreatic elastase using MeO-Suc-Ala-Ala-Pro-Val-AMC as substrate incubated for 30 mins prior to substrate addition measured for 30 mins by incubation method based fluorescence analysis; assay type: protein assay
[3] = molecular target: T4, Neutrophil elastase (Homo sapiens) (UniProt P08246); assay: Competitive inhibition of human neutrophil elastase assessed as product formation using N-MeOSuc-Ala-Ala-Pro-Val-p-nitroanilide as substrate measured for 120 mins by chromogenic 96 well microplate assay
T4 sequence (whole entry): T1 sequence (P08246 whole entry)

[4] = Metabolic stability in Sprague-Dawley rat pooled liver microsomes assessed as compound remaining after 2 days by HPLC analysis in absence of NADPH generating system; assay type: ADME; settings: read-out: Stability
[5] = Metabolic stability in Sprague-Dawley rat pooled liver microsomes assessed as compound remaining after 2 days by HPLC analysis in presence of NADPH generating system; assay type: ADME; settings: read-out: Stability
[6] = Chemical stability of the compound in phosphate buffer at pH 7.4 assessed as compound remaining at 100 uM after 2 days by HPLC analysis; assay type: physicochemical; settings: read-out: Stability
[7] = Metabolic stability in human plasma assessed as compound remaining after 2 days by HPLC analysis; assay type: ADME, cell-free; settings: read-out: Stability

Compound | IC50 (Neutrophil elastase) | IC50 (Neutrophil elastase; read-out: IC50) | further results
NC(=O)CSc1nnc2c3c4c(sc3nc(SCc3ccccc3)n12)CCCC4 | ND(Insoluble) | – | –
COC(=O)CCC(=O)N[C@@H](C)C(=O)N[C@@H](C)C(=O)N1CCC[C@H]1C(=O)N[C@@H](C)C(=O)CCl (MeOSuc-AAPA-CH2Cl) | – | 20.3 µM | –
COc1ccc(-n2c(COc3ccc4ccccc4c3)nnc2SCC(N)=O)cc1 | – | > 100 µM | –
COc1ccc(C(=O)CSc2nnc(COc3ccccc3)n2Cc2ccco2)cc1 | ND(Insoluble) | – | –
COc1ccc(C(=O)CSc2nnc(COc3ccccc3)n2Cc2ccccc2)cc1 | ND(Insoluble) | – | –
Cc1occc1-c1nnc(SCC(=O)NCCc2ccccc2)n1C(C)c1ccccc1 (stereo unspecified) | – | > 100 µM | –
Cc1ccc(-n2c(COc3ccc4ccccc4c3)nnc2SCC(=O)O)cc1 | – | > 100 µM | –
O=C(Oc1coc(CSc2nnc(NC(=O)C3CC3)s2)cc1=O)c1cccc(F)c1 | – | 18.4 µM | IC50 (Cathepsin G): > 134 µM; remaining at 48 h, 50 µM [1]: > 80%; IC50 (Myeloblastin): > 134 µM; IC50 [2]: > 134 µM; IC50 (HEK-293T): > 134 µM; IC50 (Pancreatic elastase): > 134 µM; inhibition [3]: Dose-dependent effect
CCOC(=O)C(CSCc1ccccc1)NC(=O)c1coc(-c2ccc(N)cc2)n1 (stereo unspecified) | – | 32.1 µM | –
COc1ccc(-n2c(COc3ccc4ccccc4c3)nnc2SCC(=O)O)cc1 | – | > 100 µM | –
CCC(N)c1nc(C(=O)NC(Cc2ccccc2)C(=O)OCc2ccccc2)co1 (stereo unspecified) | – | > 100 µM | –
O=C(CSc1nnc2scc(-c3ccc(Cl)cc3)n12)NCc1cccnc1 | – | > 100 µM | –
NC(=O)CSc1nnc2c3c4c(sc3nc(SCc3ccccc3)n12)CCC4 | – | > 100 µM | –
Nc1nnc(SC(C(=O)Nc2cc(Cl)cc(Cl)c2)c2ccccc2)[nH]1 (stereo unspecified) | – | 26.9 µM | IC50 (Cathepsin G): > 139 µM; remaining at 48 h [4]: > 80%; remaining at 48 h [5]: > 80%; IC50 (Myeloblastin): > 139 µM; IC50 [2]: > 139 µM; remaining at 48 h, 100 µM [6]: > 80%; IC50 (HEK-293T): > 139 µM; IC50 (Pancreatic elastase): > 139 µM; remaining at 48 h [7]: > 80%; inhibition [3]: Dose-dependent effect
COC(=O)C(CSCc1ccccc1)NC(=O)CSc1nc2ccccc2[nH]1 (stereo unspecified) | – | > 100 µM | –

Now from value to compound, other results behind:

IC50 (Neutrophil elastase) | IC50 (Neutrophil elastase; read-out: IC50) | Compound | further results
– | > 100 µM | Oc1ccc2c(c1)Oc1ncn3nc(CO/N=C/c4ccccc4)nc3c1C2c1ccccc1 (stereo unspecified) | –
ND(Insoluble) | – | c1ccc(-c2noc(CSc3nnc(Cc4cccs4)n3-c3ccccc3)n2)cc1 | –
– | > 100 µM | COc1ccc(CCNC(=O)C(Sc2ccccn2)c2ccccc2)cc1OC (stereo unspecified) | –
ND(Insoluble) | – | O=C(Cc1cn2ccsc2n1)N/N=C/c1cn(-c2ccccc2)nc1-c1cccs1 | –
ND(Insoluble) | – | O=C(CSc1nc2ccccc2n1Cc1ccccc1F)NCc1ccc2c(c1)OCO2 | –
– | > 100 µM | O=C(NCc1ccccc1)c1ccc2nc(-c3ccccn3)c(-c3ccccn3)nc2c1 | –
ND(Insoluble) | – | C=CCn1c(Cc2ccccc2)nnc1SCC(=O)Nc1nc(-c2ccccc2)cs1 | –
ND(Insoluble) | – | C=CCn1c(=O)c2ccccc2n2c(SCC(=O)NCc3cccs3)nnc12 | –
– | > 100 µM | O=C(O)CSc1nnc(CSc2nc3ccccc3s2)n1-c1ccccc1 | –
– | > 100 µM | O=C(CSc1nnc(C2CC2)n1Cc1ccccc1)NCc1ccccc1 | –
– | > 100 µM | O=C(CSc1nnc(Cc2ccccc2)n1Cc1ccccc1)NCc1ccco1 | –
ND(Insoluble) | – | CCC(Sc1nc(-c2ccccc2)cc(-c2ccccc2)n1)C(=O)Nc1nnc(C)s1 (stereo unspecified) | –
– | 17.6 µM | Nc1c(C(=O)NCc2cccs2)c2nc3ccccc3nc2n1/N=C/c1ccccn1 | –
ND(Insoluble) | – | Cc1sc(NC(=O)CSc2nnc(Cc3ccccc3)n2C)nc1-c1ccccc1 | –
